Patent publication US20250116604A1, “FL[…] OF PERF[…] LIVING CULTURES OF A NEWLY ISOLATED P[…]. BACTERIUM” (The Government of the United States of America, as …, priority 2023, published 2025)

Tested on: Pseudomonas sp. CBR-F
Assay: Fluorescent response of living Pseudomonas sp. CBR-F cultures to perfluoroalkyl substances
Assay type: cell-based
Details: excitation 425 nm; for fluorescent response of Pseudomonas sp. CBR-F: R2A medium, 96 well plate, 12-16 hours at 30° C.; for fluorescent response of Pseudomonas sp. CBR-F / form of the fluorescence response versus concentration: emission 475 nm; for form of the fluorescence response versus concentration: log of concentration plotted against the measured fluorescence; for limit of detection: ppb (micrograms/liter), fluorescence at 475 nm
Protocol: To perform an assay, CBR-F was inoculated into medium containing Reasoner's 2A medium (R2A) diluted from a 2× stock with the test sample in a 96 well plate. Internal standards using PFOA are run each time as a calibration curve. Following incubation for a number of hours (for example, 12-16 hours at 30° C.), fluorescence was measured at 475 nm with an excitation of 425 nm after the cultures have grown with shaking at 150 rpm for 15 hours using a 96 well plate reader with fluorescent capabilities. The log of PFOA concentration is plotted against the measured fluorescence, and a linear trend is calculated. The trendline formula is used to calculate PFOA/PFOS concentrations in the sample.

Row | SMILES | fluorescent response of Pseudomonas sp. CBR-F | form of the fluorescence response versus concentration | limit of detection [ppb]
1 | O=S(=O)(O)C(F)(F)C(F)(F)C(F)(F)C(F)(F)C(F)(F)C(F)(F)C(F)(F)C(F)(F)F [PFOS, perfluorooctanesulfonic acid] | produces fluorescence | linear relative to the log | 50
2 | O=C(O)C(F)(F)C(F)(F)C(F)(F)C(F)(F)C(F)(F)C(F)(F)C(F)(F)F [PFOA, perfluorooctanoic acid] | produces fluorescence | linear relative to the log | 50
